Our source for the Ki values is patent US9200001B2, “Triazolyl PDE10 inhibitors” (Merck Sharp & Dohme Corp., priority 2011, dated 2015).

Sequence of human PDE10A2 (Q9Y233 267-1055): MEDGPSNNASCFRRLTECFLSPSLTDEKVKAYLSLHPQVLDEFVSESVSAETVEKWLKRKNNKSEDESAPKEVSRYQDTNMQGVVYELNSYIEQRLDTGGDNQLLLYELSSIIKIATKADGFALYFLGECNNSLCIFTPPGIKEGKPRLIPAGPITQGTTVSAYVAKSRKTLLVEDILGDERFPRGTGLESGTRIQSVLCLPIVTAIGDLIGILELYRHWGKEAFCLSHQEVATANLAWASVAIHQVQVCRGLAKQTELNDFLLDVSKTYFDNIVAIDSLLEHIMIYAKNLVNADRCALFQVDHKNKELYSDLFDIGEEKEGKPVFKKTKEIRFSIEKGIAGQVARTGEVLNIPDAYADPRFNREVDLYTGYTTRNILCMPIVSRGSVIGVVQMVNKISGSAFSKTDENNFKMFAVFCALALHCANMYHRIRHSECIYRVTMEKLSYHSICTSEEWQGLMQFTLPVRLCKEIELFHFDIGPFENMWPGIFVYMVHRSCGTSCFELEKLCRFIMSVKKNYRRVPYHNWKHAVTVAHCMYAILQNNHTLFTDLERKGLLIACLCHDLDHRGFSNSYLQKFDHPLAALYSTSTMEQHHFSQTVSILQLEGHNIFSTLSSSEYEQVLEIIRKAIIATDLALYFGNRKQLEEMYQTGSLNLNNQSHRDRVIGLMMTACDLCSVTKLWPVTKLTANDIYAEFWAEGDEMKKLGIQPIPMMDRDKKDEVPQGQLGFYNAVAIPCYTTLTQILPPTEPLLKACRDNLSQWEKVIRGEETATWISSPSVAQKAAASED

The experiment addresses human PDE10A2 (Homo sapiens (Human), UniProt Q9Y233). Nature of the experiment: PDE10 fluorescence polarization (IMAP FP) inhibition assay. In kind it is biochemical. The following applies: FAM-labeled cAMP 50 nM, room temperature, read-out: PDE10a Ki. The gist of the method:
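Cytoplasmic lysate of AD293 cells transiently expressing human PDE10A2, incubated 30 minutes at room temperature with 50 nM FAM-labeled cAMP in Tris pH 7.2 with MgCl2. Read by IMAP fluorescence polarization; 0% inhibition set by 1% DMSO, 100% by a reference PDE10 inhibitor.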
Turning to `Cc1nc(C2CC2c2nnc(C)o2)cc(-n2nc(C)nc2C)n1` (stereo not shown) [Cpd 39, 3,5-dimethyl-1-(2-methyl-6-(2-(5-methyl-1,3,4-oxadiazol-2-yl)cyclopropyl)pyrimidin-4-yl)-1H-1,2,4-triazol-4-ium], the Ki is 918 nM.
As for `Cc1nc(C)n(-c2cc([C@H]3C[C@@H]3c3nc4ccccc4n3C)nc(OCC3CC3)n2)n1` (relative stereo) [Cpd 120, trans-2-{2-[2-(cyclopropylmethoxy)-6-(3,5-dimethyl-1H-1,2,4-triazol-1-yl)pyrimidin-4-yl]cyclopropyl}-1-methyl-1H-benzimidazole], the Ki was 1.1 nM.
In the case of `Cc1nc([C@H]2C[C@@H]2c2nc3ccccc3[nH]2)cc(-n2nc(C)nc2C)n1` [Cpd 90, 2-{(1S,2S)-2-[6-(3,5-dimethyl-1H-1,2,4-triazol-1-yl)-2-methylpyrimidin-4-yl]cyclopropyl}-1H-benzimidazole] it was 38 nM.
The result for `COc1ccc(Cc2nc(C)nn2-c2cc(CCc3ccc4ccccc4n3)nc(C)n2)nc1OC` [Cpd 8, 2-(2-(6-(5-((5,6-dimethoxypyridin-2-yl)methyl)-3-methyl-1H-1,2,4-triazol-1-yl)-2-methylpyrimidin-4-yl)ethyl)quinoline] reads 0.028 nM.
Regarding `COC[C@@H](C)Oc1nc([C@@H]2C[C@H]2c2nc3ccccc3n2C)cc(-n2nc(C)nc2C)n1` [Cpd 66, 2-[(1R,2R)-2-{6-(3,5-dimethyl-1H-1,2,4-triazol-1-yl)-2-[(1R)-2-methoxy-1-methylethoxy]pyrimidin-4-yl}cyclopropyl]-1-methyl-1H-benzimidazole], the Ki was determined as 0.63 nM.
`Cc1nc([C@@H]2C[C@H]2c2nc3ccccc3[nH]2)cc(-n2nc(C)nc2C)n1` [Cpd 89, 2-{(1R,2R)-2-[6-(3,5-dimethyl-1H-1,2,4-triazol-1-yl)-2-methylpyrimidin-4-yl]cyclopropyl}-1H-benzimidazole]: the Ki was determined as 2.6 nM.
In the case of `Cc1nc([C@H]2C[C@@H]2c2nc3ccccc3s2)cc(-n2nc(C)nc2C)n1` [Cpd 104, 2-{(1S,2S)-2-[6-(3,5-dimethyl-1H-1,2,4-triazol-1-yl)-2-methylpyrimidin-4-yl]cyclopropyl}-1,3-benzothiazole] it was 69.5 nM; in that of `Cc1nc(C2CC2c2nc3ccccc3n2-c2ccccc2)cc(-n2nc(C)nc2C)n1` (stereo not shown) [Cpd 51, 2-(2-(6-(3,5-dimethyl-1H-1,2,4-triazol-1-yl)-2-methylpyrimidin-4-yl)cyclopropyl)-1-phenyl-1H-benzo[d]imidazole], 38.8 nM.
In the case of `Cc1nc([C@@H]2C[C@H]2c2nc3ccccc3n2C(C)C)cc(-n2nc(C)nc2C)n1` (stereo in doubt) [Cpd 71, 2-{2-[6-(3,5-dimethyl-1H-1,2,4-triazol-1-yl)-2-methylpyrimidin-4-yl]cyclopropyl}-1-(1-methylethyl)-1H-benzimidazole] it was 13.6 nM; in that of `Cc1nc(C2CC2c2nnc(C)s2)cc(-n2nc(C)nc2C)n1` (stereo not shown) [Cpd 40, 2-(2-(6-(3,5-dimethyl-1H-1,2,4-triazol-1-yl)-2-methylpyrimidin-4-yl)cyclopropyl)-5-methyl-1,3,4-thiadiazole], 124 nM; in that of `COc1ccc(Cc2nc(C)nn2-c2cc(C3CC3c3ccc(C)cn3)nc(C)n2)cc1OC` (stereo not shown) [Cpd 35, 4-(5-(3,4-dimethoxybenzyl)-3-methyl-1H-1,2,4-triazol-1-yl)-2-methyl-6-(2-(5-methylpyridin-2-yl)cyclopropyl)pyrimidine], 0.21 nM.
As to `COc1ncc(Cc2nc(C)nn2-c2cc(CCc3ccc4ccccc4n3)nc(C)n2)nc1OC` [Cpd 15, 2-(2-(6-(5-((5,6-dimethoxypyrazin-2-yl)methyl)-3-methyl-1H-1,2,4-triazol-1-yl)-2-methylpyrimidin-4-yl)ethyl)quinoline], the Ki was 0.056 nM.
As for `COc1ccc(Cc2nc(C)nn2-c2cc(CCc3ccc4ccccc4n3)nc(C)n2)cc1OC` [Cpd 3, 2-(2-(6-(5-(3,4-dimethoxybenzyl)-3-methyl-1H-1,2,4-triazol-1-yl)-2-methylpyrimidin-4-yl)ethyl)quinoline], the Ki is 0.004 nM.
In the case of `COc1ccc2nc(C3CC3c3cc(-n4nc(C)nc4C)nc(C)n3)[nH]c2c1` (stereo not shown) [Cpd 59, 2-(2-(6-(3,5-dimethyl-1H-1,2,4-triazol-1-yl)-2-methylpyrimidin-4-yl)cyclopropyl)-6-methoxy-1H-benzo[d]imidazole] it was 30.5 nM; in that of `Cc1nc(C2CC2c2nc3ccccc3[nH]2)cc(-n2nc(C)nc2C)n1` (stereo not shown) [Cpd 41, 2-(2-(6-(3,5-dimethyl-1H-1,2,4-triazol-1-yl)-2-methylpyrimidin-4-yl)cyclopropyl)-1H-benzo[d]imidazole], 6.8 nM.
On to `Cc1nc([C@H]2C[C@@H]2c2nc3ccccc3n2C)cc(-n2nc(C)nc2O)n1` (stereo in doubt) [Cpd 78, 3-methyl-1-{2-methyl-6-[2-(1-methyl-1H-benzimidazol-2-yl)cyclopropyl]pyrimidin-4-yl}-1H-1,2,4-triazol-5-ol], for which the Ki is greater than 75 nM.
In the case of `Cc1nc(C2CC2c2nc3ccc(Cl)cc3[nH]2)cc(-n2nc(C)nc2C)n1` (stereo not shown) [Cpd 57, 6-chloro-2-(2-(6-(3,5-dimethyl-1H-1,2,4-triazol-1-yl)-2-methylpyrimidin-4-yl)cyclopropyl)-1H-benzo[d]imidazole] it was 30.7 nM; in that of `CNc1nc([C@@H]2C[C@H]2c2nc3ccccc3n2C)cc(-n2nc(C)nc2C)n1` [Cpd 62, 4-(3,5-dimethyl-1H-1,2,4-triazol-1-yl)-N-methyl-6-[(1R,2R)-2-(1-methyl-1H-benzimidazol-2-yl)cyclopropyl]pyrimidin-2-amine], 0.77 nM.
The result for `COc1ccc(Cc2nc(C)nn2-c2cc(C3CC3c3nc4ccccc4n3C)nc(C)n2)cc1OC` (stereo not shown) [Cpd 28, 2-(2-(6-(5-(3,4-dimethoxybenzyl)-3-methyl-1H-1,2,4-triazol-1-yl)-2-methylpyrimidin-4-yl)cyclopropyl)-1-methyl-1H-benzo[d]imidazole] reads 0.003 nM.
The result for `Cc1nc(C)n(-c2cc([C@H]3C[C@@H]3c3nc4ccccc4n3C)nc(OCC(F)(F)F)n2)n1` (relative stereo) [Cpd 124, trans-2-{2-[6-(3,5-dimethyl-1H-1,2,4-triazol-1-yl)-2-(2,2,2-trifluoroethoxy)pyrimidin-4-yl]cyclopropyl}-1-methyl-1H-benzimidazole] reads 1.5 nM; that for `Cc1nc([C@@H]2C[C@H]2c2nc3ccccc3n2Cc2ccccn2)cc(-n2nc(C)nc2C)n1` (stereo in doubt) [Cpd 73, 2-{2-[6-(3,5-dimethyl-1H-1,2,4-triazol-1-yl)-2-methylpyrimidin-4-yl]cyclopropyl}-1-(pyridin-2-ylmethyl)-1H-benzimidazole], 13.1 nM; that for `Cc1nc([C@@H]2C[C@H]2c2nc3ccccc3n2C)cc(-n2cnc(C)n2)n1` [Cpd 77, 1-methyl-2-{(1R,2R)-2-[2-methyl-6-(3-methyl-1H-1,2,4-triazol-1-yl)pyrimidin-4-yl]cyclopropyl}-1H-benzimidazole], 9 nM.
Consider `COc1ccc(Cc2nc(C)nn2-c2cc(/C=C/c3ccc(C)cn3)nc(C)n2)cc1OC` [Cpd 20, (E)-4-(5-(3,4-dimethoxybenzyl)-3-methyl-1H-1,2,4-triazol-1-yl)-2-methyl-6-(2-(5-methylpyridin-2-yl)vinyl)pyrimidine], for which the Ki was 0.11 nM.
In the case of `COc1ccc(C2CC2c2cc(-n3nc(C)nc3Cc3ccc(OC)c(OC)c3)nc(C)n2)nc1` (stereo not shown) [Cpd 43, 4-(5-(3,4-dimethoxybenzyl)-3-methyl-1H-1,2,4-triazol-1-yl)-6-(2-(5-methoxypyridin-2-yl)cyclopropyl)-2-methylpyrimidine] it was 0.39 nM; in that of `COc1ccc(Cc2nc(C)nn2-c2cc(C#Cc3ccc4ccccc4n3)nc(C)n2)nc1OC` [Cpd 7, 2-((6-(5-((5,6-dimethoxypyridin-2-yl)methyl)-3-methyl-1H-1,2,4-triazol-1-yl)-2-methylpyrimidin-4-yl)ethynyl)quinoline], 0.073 nM.
Take `CSc1nc([C@@H]2C[C@H]2c2nc3ccccc3n2C)cc(-n2nc(C)nc2C)n1` [Cpd 69, 2-{(1R,2R)-2-[6-(3,5-dimethyl-1H-1,2,4-triazol-1-yl)-2-(methylsulfanyl)pyrimidin-4-yl]cyclopropyl}-1-methyl-1H-benzimidazole]: the Ki was found to be 0.37 nM.
On to `Cc1nc(C)n(-c2cc([C@@H]3C[C@H]3c3nc4ccccc4n3C)nc(OCC3CCO3)n2)n1` (stereo partly drawn) [Cpd 138, 2-((1R,2R)-2-(6-(3,5-dimethyl-1H-1,2,4-triazol-1-yl)-2-(oxetan-2-ylmethoxy)pyrimidin-4-yl)cyclopropyl)-1-methyl-1H-benzo[d]imidazole], for which the Ki amounted to 1.3 nM.
Regarding `Cc1nc([C@@H]2C[C@H]2c2nc3ccccc3n2C)cc(-n2nc(C)nc2[C@@H]2CCCO2)n1` [Cpd 101, 1-methyl-2-[(1R,2R)-2-(2-methyl-6-{3-methyl-5-[(2S)-tetrahydrofuran-2-yl]-1H-1,2,4-triazol-1-yl}pyrimidin-4-yl)cyclopropyl]-1H-benzimidazole], the Ki is 5.8 nM.
The result for `COc1ccc(Cc2nc(C)nn2-c2cc(C3CC3c3nnc(C)o3)nc(C)n2)cc1OC` (stereo not shown) [Cpd 27, 2-(2-(6-(5-(3,4-dimethoxybenzyl)-3-methyl-1H-1,2,4-triazol-1-yl)-2-methylpyrimidin-4-yl)cyclopropyl)-5-methyl-1,3,4-oxadiazole] reads 88 nM.
In the case of `Cc1nc([C@H]2C[C@@H]2c2nc3ncccc3n2C)cc(-n2nc(C)nc2C)n1` (stereo in doubt) [Cpd 80, 2-{2-[6-(3,5-dimethyl-1H-1,2,4-triazol-1-yl)-2-methylpyrimidin-4-yl]cyclopropyl}-1-methyl-1H-imidazo[4,5-b]pyridine] it was greater than 75 nM; in that of `COc1ccc(Cc2nc(C)nn2-c2cc(C#Cc3ccc4ccccc4n3)nc(C)n2)cc1OC` [Cpd 2, 2-((6-(5-(3,4-dimethoxybenzyl)-3-methyl-1H-1,2,4-triazol-1-yl)-2-methylpyrimidin-4-yl)ethynyl)quinoline], 0.023 nM.
